What was measured:
[1] = test system: mitral VEC; assay: EndMT assay with flow cytometry, mitral VEC clones; type: cell-based, Ovine
Protocol: (§1) Ovine MVs were minced and digested for 30 minutes at 37° C. with Liberase (Roche Diagnostics, IN, USA, #5401119001), a blend of purified collagenases I and II. Isolated cells were fixed using Flow Cytometry Fixation Buffer (R&D Systems, MN, USA, #FC004) and labeled in Flow Cytometry Permeabilization/Wash Buffer I (R&D Systems, MN, USA, #FC005) for 45 minutes (100,000 cells/100 μl Buffer I). Murine anti-human CD45-FITC or -APC (1:50; AbD Serotec, NC, USA, # MCA2220F and #559864), VE-cadherin-PE or -FITC (1:100; R&D Systems, MN, USA, # FAB9381P and AbD Serotec, NC, USA, # AHP628F), and α-smooth muscle actin (αSMA)-APC or -PE (1:100; R&D Systems, MN, USA, # IC1420P and # IC1420A) were used.
(§2) Ovine mitral VEC and CAEC were plated at 10,000 cells/cm^2 on gelatin-coated dishes. After 24 hours, EBM-B was replaced with fresh EBM-B containing 1 ng/ml human TGFβ1 (R&D Systems, MN, USA). Cells were harvested with Liberase ([…]) 96 hours later, and used for flow cytometry. Cells were analyzed simultaneously for VE-cadherin, α-SMA and CD45 by flow cytometry as described above.

[2] = test system: mitral VEC; assay: EndMT assay with qPCR in TGFβ1-treated mitral VEC clones; type: cell-based, Ovine; conditions: for NFATc1 mRNA / αSMA, Slug, MMP-2, collagen 1, collagen 3, TGFβ1, TGFβ2 and TGFβ3 mRNA levels: inhibitor 0.5 μM during the 4 day TGFβ1 treatment, mitral VEC clones
Protocol: as §2
(§3) Total cellular RNA was extracted from mitral VEC clones (C5, D1, E5, E10 and E10-2) and CAEC (n=2) with an RNeasy Micro extraction kit (Qiagen, Valencia, Calif., #74004). Reverse transcriptase reactions were performed using an iScript cDNA Synthesis Kit (Bio-Rad, CA, USA #170-8890). qPCR was performed using Kapa Sybr Fast ABI Prism 2×qPCR Master Mix (KAPA BioSystems, MA, USA # KK4604). Amplification was carried out in an ABI 7500 (Applied Biosystems, Foster City, Calif.). A standard curve for each gene was generated to determine amplification efficiency. RPS9 was used as housekeeping gene expression reference. Fold increases in gene expression were calculated according to 2 delta Ct method^28,29, with each amplification reaction performed in triplicate.

[3] = test system: carotid artery endothelial cells (CAEC); assay: EndMT assay with flow cytometry, CAEC; type: cell-based, Ovine; conditions: TGFβ-treated and non-treated CAECs
Protocol: as §1, §2

[4] = test system: mitral VEC; assay: Cellular migration assay (Transwell), mitral VEC clones; type: cell-based, Ovine; conditions: for EndMT-increased migration towards serum and bFGF: TGFβ-treated mitral VEC clones (n=3), inhibitor 1.0 μM 30 min before and during 6 hour assay
Protocol: (§4) The lower chambers contained 0.1% BSA/EBM-2 media alone or EBM with serum and basic FGF as a chemoattractants. Cells were allowed to migrate for 6 hours at 37° C. (FIG. 6) Cells that migrated through the pores were fixed with methanol and stained with Eosin-Y, Azure A and Methylene Blue for visualization and quantification using Three Step Stain Set (VWR, PA, USA #48218-567).

[5] = test system: carotid artery endothelial cells (CAEC); assay: EndMT assay with qPCR in TGFβ1-treated CAEC; type: cell-based, Ovine; conditions: for EndMT and fibrosis marker mRNA in CAEC: presence or absence of inhibitor
Protocol: as §2, §3

[6] = test system: carotid artery endothelial cells (CAEC); assay: Cellular migration assay (Transwell), CAEC; type: cell-based, Ovine; conditions: 6 hour assay; for Migration of CAEC, response to inhibitor: control and TGFβ1-treated CAEC, inhibitor 1.0 μM
Protocol: as §4

[7] = test system: TGF-β; conditions: cited from earlier work
[8] = test system: early stage diffuse cutaneous systemic sclerosis; conditions: cited from earlier work
[9] = target: T1, TGF-beta2 (Homo sapiens, UniProt P61812); conditions: cited from earlier work
T1 sequence (P61812 303-414 limits assumed): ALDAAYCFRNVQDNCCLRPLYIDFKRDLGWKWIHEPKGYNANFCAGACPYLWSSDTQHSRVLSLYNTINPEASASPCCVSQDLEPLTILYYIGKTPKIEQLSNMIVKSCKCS

[10] = test system: scarring after glaucoma surgery; conditions: rabbits; cited from earlier work
[11] = test system: scar formation; conditions: first clinical trials; intractable glaucoma patients, trabeculectomy; cited from earlier work
[12] = target: T2, TGF-beta3 (Homo sapiens, UniProt P10600); conditions: cited from earlier work
T2 sequence (P10600 301-412 limits assumed): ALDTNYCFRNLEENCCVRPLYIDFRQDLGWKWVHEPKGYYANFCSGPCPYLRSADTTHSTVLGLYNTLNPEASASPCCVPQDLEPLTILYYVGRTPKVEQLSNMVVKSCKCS

[13] = qPCR, listed as CD45 phosphatase inhibitor
[14] = listed as CD45 phosphatase inhibitor

## TGFβ1: human TGFβ1 (R&D Systems), used at 1 ng/ml to induce EndMT
[1]; TGFβ1-treated mitral VEC clones
  α-SMA, flow cytometry: significantly increased
[1]; TGFβ1-treated mitral VEC, data not shown
  CD11b and CD14 expression, flow cytometry: No expression was detected
[1]; four additional mitral VEC clones treated with TGFβ1 1 ng/ml 96 hours
  cells positive for CD45: 19-88%
[1]; mitral VEC clone E10, 1 ng/ml TGFβ1, 96 hours
  CD45 and αSMA expression, flow cytometry: strong induction
[1]; seven mitral VEC clones, 4 day exposure to TGFβ1
  CD45, flow cytometry: significantly increased
[2]; TGFβ1-treated mitral VEC clones, qPCR
  Collagen 1, collagen 3, TGFβ1, TGFβ2 and TGFβ3 mRNA transcripts: increased
[2]; TGFβ1-treated mitral VEC, qPCR
  Slug, MMP2 and NFATc1 mRNA: modulated as expected
[2]; five mitral VEC clones, TGFβ1 4 days, qPCR
  CD45 and αSMA mRNA: significant increases
[3]
  CD45 or αSMA expression in CAEC, flow cytometry: did not express
[4]; mitral VEC clones (n=3), TGFβ1 4 days, 6 hour assay
  migration towards serum and bFGF after TGFβ treatment: significantly increased
[5]
  CD45, VE-cadherin or αSMA mRNA levels in CAEC: No changes
[6]; CAEC
  migration of CAEC after TGFβ treatment: no increase

## CC(C)(C)C(=O)Nc1ccc2c(c1)C(=O)C(=O)c1ccccc1-2 [CD45 PTPase inhibitor, N-(9,10-dioxo-9,10-dihydro-phenanthren-2-yl)-2,2-dimethyl propionamide]
[2]; qPCR
  NFATc1 mRNA: restored
  αSMA, Slug, MMP-2, collagen 1, collagen 3, TGFβ1, TGFβ2 and TGFβ3 mRNA levels: significantly reduced
[2]; [13]
  NFATc1 mRNA: blocks the decrease
  αSMA, Slug, MMP-2, collagen 1, collagen 3, TGFβ1, TGFβ2 and TGFβ3 mRNA levels: reduces
[2]; summary statement
  induction of 7 EndMT/fibrosis markers (α-SMA, Slug, MMP2, NFATc1, TGFβ2, collagen 1 and collagen 3): blocks
[4]
  EndMT-increased migration towards serum and bFGF: significantly inhibited
[4]; [14]
  EndMT-increased migration towards serum and bFGF: specifically blocks
[5]
  EndMT and fibrosis marker mRNA in CAEC: no changes
[5]; [14]
  EndMT and fibrosis marker mRNA in CAEC: no effect
[6]
  Migration of CAEC, response to inhibitor: no response
[6]; [14]
  Migration of CAEC, response to inhibitor: no effect

## Cc1ccc(=O)n(-c2ccccc2)c1 [Pirfenidone, 5-methyl-1-phenyl-2(1H)-pyridone]
[7]
  TGF-β promoter activity, TGF-β protein secretion, TGF-β-induced Smad2 phosphorylation and generation of reactive oxygen species: reduces

## CAT-192: a TGF-β1 neutralizing antibody
[8]; in vivo
  adverse events: more adverse events
[8]; phase I/II trial NCT00043706
  effect on early stage diffuse cutaneous systemic sclerosis: did not show effect

B1: CAT-152: fully human TGF-beta2 neutralizing antibody (antibody, chains of the INN, looked up, V domains shown)
VH: EVQLVESGGGVVQPGRSLRLSCAASGFTFSSYGMHWVRQAPGKGLEWVAVIWYDGSNKYYADSVKGRFTISRDNSKNTLYLQMDSLRAEDTAVYYCGRTLESSLWGQGTLVTVSS
VL: SSELTQDPAVSVALGQTVRITCQGDSLRSYYASWYQQKPGQAPVLVIYGKNNRPSGIPDRFSGSSSGNTASLTITGAQAEDEADYYCNSRDSSSTHRGVFGGGTKLTVL
[9]
  affinity for TGF-beta2: high affinity
[10]
  scarring after glaucoma surgery: capable of inhibiting
[11]
  scar formation: possible effects
[12]
  affinity for TGF-beta3: lower affinity

From US20180311356A1, “METHOD TO INHIBIT ENDOTHELIAL-TO-MESENCHYMAL TRANSITION” (THE CHILDREN'S MEDICAL CENTER CORPORATION, priority 2015, published 2018)
